Experimental data published in patent publication US11230688B2, “In vitro gastrointestinal model comprising lamina propria-derived cells” (EMULATE, Inc., priority 2016, dated 2022).
Like-named read-outs stand apart in the source and are kept apart here. Each block holds one compound with its values, some of them ahead of it.

Columns and labels:
[1] = tested on: Ulcerative Colitis; conditions: cited from earlier work
[2] = tested on: microfluidic co-cultures of Caco-2 epithelial cells, HUVECs and LPDCs; experiment: Gut-On-Chip cytokine and chemokine production in co-cultures with lamina propria-derived cells; assay type: cell-based, human
Procedure: An exemplary bacteria antigen used was PAM2CSK4. […] PAM2CSK4 refers to a synthetic diacylated lipopeptide.
In order to determine contributory factors to the trends in permeability changes observed by combinations of prednisone treatments as in Example 5, cytokine and chemokine production were measured from media samples obtained from the microfluidic cultures as described in EXAMPLE 5. After an incubation time, media samples were extracted from the microfluidic device then used for determining amounts cytokine and chemokine produced, such as IL-6 and IL-9 in FIG. 18A-B; IL-8 and G-CSF in FIG. 19A-B; GM-CSF and MCP-1 in FIG. 20A-B; MIP1b and PDGF-AB/BB in FIG. 21A-B; and RANTES in FIG. 22. Amounts of cytokine and chemokine protein are measure in pg/ml (picogram per milliliter).

[3] = tested on: Caco-2 epithelial cell layer; experiment: Gut-On-Chip barrier function (apparent permeability, Papp) with lamina propria-derived cells; conditions: for Loss of barrier function: PAM2CSK4, overnight incubation
Excerpt: (§1) This permeability assay method for adsorption across a gut wall, i.e. caco-2 cells in a gut-on-chip, measures the rate of transport of a test compound added to the basal side of the membrane, for example, inulin-FITC, across to the apical side. […] Conversely, adding a test compound to the apical side may also be used to measure transport to the basal side.
(§2) The Gut-On-Chip modeling of inflammation was used for testing bacterial antigen effects on barrier function and cytokine production. An exemplary bacteria antigen used was PAM2CSK4. […] PAM2CSK4 refers to a synthetic diacylated lipopeptide.
(§3) A co-culture configured as described herein was incubated in a device of the present inventions as described in FIG. 7.
(§4) Cultivation of Caco-2 cells in microfluidic device: Caco-2 cell monolayers were seeded as described herein. Basal regions of cells were exposed to medium under flow. […] Experimental procedure: Cells were used for this experiment between days 7 and 9 post seeding. Donor solutions (including a 100 μg/ml Inulin-FITC) were prepared, and solutions used in this experiment were prewarmed to 37° C. Inulin-FITC was used as an indicator for the determination of the monolayer integrity. […] Inulin-FITC method: 6 mM Inulin-FITC may be added into an apical region of a monolayer; and incubated for 1 hr. A standard curve may be prepared in a separate container, e.g. a 0.5 to 50 μM; HBSS blank containing 1 to 0.5% DMS0 is placed in wells; Aliquots of 200 μl are transferred from the separate container to a solid black plate; Aliquots of 50 μl are transferred from the device to a solid black plate containing 50 μl HBSS with 1-0.5% DMSO; Plates may be read in a fluorescent reader (Excitation/Emission wavelength 480/530 nm); LY rejection (Pc) values are calculated. V. Molecule transport assay: Transport of a molecule across the monolayer may also be determined; a test compound may be added at the apical region of the monolayer then removed from the apical and/or basal media then analyzed using LC-MS method for loss (e.g. apical region) or gain (e.g. basal region).
(§5) Microfluidic co-cultures with HUVEC cells in the bottom chamber, LPDCs from human non-inflamed regions of UC tissue biopsies, LPDCs from UC inflamed tissue biopsies, and samples with no LPDCs, were overlaid with Caco-2 epithelial cell layers.

[4] = tested on: resident immune cells from healthy and UC patient LP tissue; experiment: Secreted cytokine production of resident immune cells cultured on plates, 24 hour bacterial challenge; assay type: cell-based, human; conditions: immune cells from inflamed UC tissue
[5] = tested on: Intestine On-Chip with TH1 or TH9 populations; experiment: Intestine On-Chip seeded with plate-differentiated TH1 or TH9 cells, soluble reagents: cytokine production and gene expression; assay type: cell-based, human; conditions: for IL-10 secretion: TH9 populations
Excerpt: Experiments were designed to evaluate whether anti-CD3 and anti-CD28 co-stimulatory activation (soluble reagents) on chip would stimulate on chip T cells (previously activated and differentiated on plates) to continue functioning as activated effector cells within the chip tissue microenvironment. Further, TH1 and TH9 T cell populations underwent testing for an exacerbated response (either tissue alterations or changes in the characteristics of the T cell population) to a specific antigen stimulation, e.g. PAM2CSK4 (TLR2) bacterial agonist, with or without additional co-stimulation (i.e. using soluble reagents). Stimulation on-chip was done as a treatment on Day 7 of culture.
In this example, a TH1 cell population was produced from a population of mature/naive CD4+ T cells, as described in Example 7. This population of CD4+ T cells were co-stimulated with adhered CD3 and soluble CD28 antibodies, without added cytokines, for inducing differentiation of TH1 cells on plates. Unlike co-stimulation with adhered CD3 and soluble CD28 antibodies in the presence of TGFB IL-4, and IFNg cytokines which induced differentiation of TH9 cells, as described herein. Thus, in this example, purified CD4+ T cell populations were plated into tissue culture plates for activation and differentiation into one selected T cell subtype, e.g. TH1 in one plate, and TH9 in another plate.
In order to further test whether PBMCs activated and differentiated with soluble factors were capable of inducing inflammation on chips, pro-inflammatory cytokine production was compared between untreated, PAM2CSK4 treated with and without Tofacitinib. […]
Evaluation of the effects of T-cell activation on the Intestine On-Chip by perfusion of soluble immune activating factors (anti-CD3 and anti-CD2) to the media is shown in FIGS. 36A-B-39A-C. In particular, activated T-cell subsets were evaluated for disease-specific cytokine production.

[6] = tested on: microfluidic co-cultures of Caco-2 epithelial cells, HUVECs and LPDCs; experiment: Gut-On-Chip cytokine and chemokine production in co-cultures with lamina propria-derived cells; assay type: cell-based, human; remark: listed apart in the source
[7] = tested on: TH1 and TH9 CD4+ T cell populations; experiment: On-plate bacterial antigen stimulation of differentiated CD4+ T cell subsets (cytokines, IL-9 activation factors); assay type: cell-based, human
Excerpt: In this example, a TH1 cell population was produced from a population of CD4+ T cells obtained from a sample of PBMCs. This population of CD4+ T cells were co-stimulated with soluble CD3 and CD28 antibodies without added cytokine stimulation for inducing differentiation of TH1 cells. Unlike the co-stimulation with soluble CD3 and CD28 antibodies in the presence of TGFB, IL-4, and IFNg cytokines for inducing differentiation of TH9 cells as described herein.
Thus, in this example, purified CD4+ T cell populations were plated into tissue culture plates for activation and differentiation into one selected T cell subtype, e.g. Th1 in one plate, and Th2 in another plate.
A sample of each TH cell type was exposed to PAM2CSK4, then log 2 fold changes in protein expression of either pathway molecules or IL-9 were measured and compared to duplicate samples not treated with PAM2CSK4.

[8] = tested on: Caco-2 epithelial layer
Excerpt: The chips treated with PAM2CSK4 as a model bacterial antigen are considered infected chips.

[9] = tested on: Caco-2 epithelial cell layer
Excerpt: as §1, §2, §3, §4, §5

[10] = Prednisone alone, non-inflamed LPDC cultures
[11] = prednisone, inflamed LPDCs, with and without PAM2CSK4
[12] = prednisone, non-inflamed and inflamed LPDCs treated with PAM2CSK4

- Permeability (Papp) ([3]; FIG. 17A, prednisone, at least one patient sample of non-inflamed LPDCs): some benefit in reducing permeability
- Permeability (Papp) ([3]; FIG. 17A, prednisone, at least one patient sample with inflamed UC LPDC): undesirable increase
- Permeability (Papp) ([3]; FIG. 17B, overnight, prednisone, non-inflamed UC LPDC): undesirable increase in permeability
- Permeability (Papp) ([3]; prednisone and PAM2CSK4, inflamed UC LPDC): little benefit
- Permeability (Papp) ([3]; prednisone and PAM2CSK4, non-inflamed UC LPDC): range of responses
- Permeability (Papp), trend ([3]; prednisone and bacterial antigen): trend for decreasing permeability
- Permeability (Papp), trend ([3]; prednisone, non-inflamed UC LPDC): increased permeability
- Permeability (Papp), effect on average ([3]; prednisone, non-inflamed or inflamed UC LPDC): no significant effect
Compound: C[C@]12C=CC(=O)C=C1CC[C@@H]1[C@@H]2C(=O)C[C@@]2(C)[C@H]1CC[C@]2(O)C(=O)CO [prednisone]
- treated patients non-responsive [1]: around 16%
- treated patients with full remission [1]: ~54%
- treated patients with partial remission [1]: ~30%
- PDGF-AA/BB production ([2]; Prednisone alone): did not appear to be a reduction in PDGF-AA/BB
- GM-CSF production [2, 10]: did not appear to be a reduction in GM-CSF
- MCP-1 production [2, 10]: did not appear to be a reduction in MCP-1
- IL-8 production ([2]; non-inflamed LPDC cultures, Prednisone alone or PAM2CSK4): did not appear to be a reduction in IL-8
- IL-9 production ([2]; prednisone on PAM2CSK4-increased IL-9): significantly reduced
- IL-6 production ([2]; prednisone, inflamed LPDCs, endogenous or induced by PAM2CSK4): reduce IL-6 production
- GM-CSF production [2, 11]: reduced GM-CSF production
- IL-8 production [2, 11]: trend for reducing IL-8 production
- MCP-1 production [2, 11]: reduced MCP-1 production
- IL-6 production ([2]; prednisone, non-inflamed LPDCs): does not appear to have an effect
- PDGF-AA/BB production ([2]; prednisone, non-inflamed LPDCs): trend for reducing PDGF-AA/BB production
- PDGF-AA/BB production [2, 12]: trend for reducing PDGF-AA/BB production
- RANTES production [2, 12]: trend for reducing RANTES production
- IL-9 production ([2]; prednisone, non-inflamed and inflamed UC LPDC, regardless of PAM2CSK4): reduced
- G-CSF production ([2]; prednisone, non-inflamed or inflamed LPDCs, with and without PAM2CSK4): trend for reducing G-CSF production
- Inflammatory responses (secreted cytokine production) to PAM2CSK4 treatment ([2]; prophylactic prednisone, UC patient's resident immune cells, noninflamed and inflamed tissues): suppresses the inflammatory responses
- Permeability (Papp) ([3]; FIG. 17B, overnight, prednisone, inflamed UC LPDCs): did not induce an increase in permeability
- Permeability (Papp) ([3]; overnight, prednisone, inflamed UC LPDC samples): both an increase and a decrease in permeability
- Permeability (Papp), trend ([3]; prednisone, inflamed UC LPDC): little difference from the non-inflamed LPDC sample

- Avg. Z Height of Caco-2 epithelial layer [8]: 84 um+/−11
- Permeability (Papp) [9]: show an increase in permeability
Compound: PAM2CSK4
- Response to TLR2 activation (secreted TNF alpha, IL-6, IL-8) [4]: stronger response
- IL-6 production ([2]; 1, 2 and 4 LP mil/ml, versus co-cultures with no PAM2CSK4): induced a higher level of IL-6 production
- IL-9 production ([2]; LP leukocyte co-cultures for each source (healthy, UC non-inflamed, UC inflamed)): induce IL-9
- IL-6 production ([2]; PAM2CSK4, inflamed LPDC samples): increased IL-6 production
- IL-6 production ([2]; PAM2CSK4, non-inflamed LPDC samples): not with the non-inflamed LPDC samples
- IL-9 production ([2]; PAM2CSK4, non-inflamed and inflamed LPDC co-cultures, over endogenous levels): significantly induced IL-9 production
- Apical IL-9 cytokine secretion ([2]; apical regions, 4 LP mil/ml): not at 4 LP mil/ml
- IL-9 production ([2]; epithelial cells without LP cells): not in epithelial cells without LP cells
- IL-6 production ([2]; healthy LP leukocyte co-cultures and epithelial cells without LP): induce an IL6 response
- IL-10 secretion ([5]; Pam stimulated vs unstimulated): no insignificant differences
- IL-8 ([5]; antigen specific stimulation (TLR2 agonist) on activated TH1 and TH9 chips): increased
- Basal IL-9 cytokine secretion ([6]; 4 LP mil/ml, basal areas): induced a higher level of IL-9 production
- Apical IL-9 cytokine secretion ([6]; apical regions, 1 and 2 LP mil/ml): increased with PAM2CSK4 treatment
- Loss of barrier function ([3]; 4 LP mil/ml): Loss of barrier function is shown
- Loss of barrier function ([3]; LP 1 mil/ml or LP 2 mil/ml): not at LP 1 mil/ml or LP 2 mil/ml
- GATA3 and SPI1 (log 2 fold change) ([7]; PAM2CSK4, TH1 populations): not GATA3 car SPI11
- IL-9 mRNA concentrations ([7]; PAM2CSK4, TH1 populations): did significantly increase
- IRF4 and IL-9 (log 2 fold change) ([7]; PAM2CSK4, TH1 populations): produce measurable IRF4 and IL-9
- IL-9 and IL-9 activation factors (log 2 fold changes) ([7]; PAM2CSK4, TH9 populations in tissue culture plate): did not significantly increase IL-9
- Cytokine protein expression post differentiation ([7]; soluble PAM2CSK4, TH1 (CD) and TH9 (UC) cells on-plates): increases in the concentration of protein signaling

Compound: Tofacitinib (citrate)
- IL-10 secretion ([5]; mixture of PAM2CSK4 and Tofacitinib vs unstimulated): induced significant amounts
